The test system of this assay is BDF1 mice, P388 leukemia ip, median survival T/C. The assay is described as follows: NCI In Vivo Anticancer Drug Screen. Data for tumor model P388 Leukemia (intraperitoneal) in B6D2F1 (BDF1) mice. The settings on record: endpoint: median survival time, higher = longer survival. In short, it runs like this: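 Mice carrying the transplantable tumour receive compound or vehicle. Survival is followed in each arm, and the treated measure is divided by the vehicle measure.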

Where [1] appears, read: dose: 25.0 mg/kg/injection, schedule: Q01DX009 (ip), vehicle: Klucel (hydroxypropylcellulose) (HPC).
Setting [2] is: dose: 50.0 mg/kg/injection, schedule: Q01DX009 (ip), vehicle: Klucel (hydroxypropylcellulose) (HPC).
Where [3] appears, read: dose: 100.0 mg/kg/injection, schedule: Q01DX009 (ip), vehicle: Klucel (hydroxypropylcellulose) (HPC).
Where [4] appears, read: dose: 200.0 mg/kg/injection, schedule: Q01DX009 (ip), vehicle: Klucel (hydroxypropylcellulose) (HPC).
Where [5] appears, read: dose: 100.0 mg/kg/injection, schedule: Q04DX003 (ip), vehicle: Klucel (hydroxypropylcellulose) (HPC).
The mark [6] stands for this setting: dose: 200.0 mg/kg/injection, schedule: Q04DX003 (ip), vehicle: Klucel (hydroxypropylcellulose) (HPC).
[7] abbreviates: dose: 50.0 mg/kg/injection, schedule: Q01DX009 (ip), vehicle: saline with Tween-80.
The mark [8] stands for this setting: dose: 100.0 mg/kg/injection, schedule: Q01DX009 (ip), vehicle: saline with Tween-80.
The mark [9] stands for this setting: dose: 200.0 mg/kg/injection, schedule: Q01DX009 (ip), vehicle: saline with Tween-80.

Several values for one entry are separate records, joined by “and”; a condition that tells them apart may be missing. Equal values may be shown once. Toxic doses and inconclusive results are not listed.

For `CCCCCCCCCCCCCCCC[N+](C)(C)C(C)c1ccc(OC)cc1` (configuration not stated), where the note is “dose: 6.25 mg/kg/injection, schedule: Q04DX003 (ip), vehicle: saline with Tween-80”, the T/C is 123 % of control.

As for `CC12CCCN(CCCl)C1CCC1C2CCC2(C)C1CCCN2CCCl` (configuration not stated), the T/C was 98 % of control (dose: 0.38 mg/kg/injection, schedule: Q01DX001 (ip), vehicle: saline); 102 % of control (dose: 0.75 mg/kg/injection, schedule: Q01DX001 (ip), vehicle: saline); 102 % of control (dose: 0.78 mg/kg/injection, schedule: Q01DX001 (ip), vehicle: saline); 109 % of control (dose: 1.5 mg/kg/injection, schedule: Q01DX001 (ip), vehicle: saline); 100 % of control (dose: 1.56 mg/kg/injection, schedule: Q01DX001 (ip), vehicle: saline); 107 % of control (dose: 3.13 mg/kg/injection, schedule: Q01DX001 (ip), vehicle: saline). Besides, the T/C (dose: 6.25 mg/kg/injection, schedule: Q01DX001 (ip), vehicle: saline) is 116 % of control.

Take `Clc1ccc(C(Cl)(Cl)Cl)cc1Cl`: the T/C reads like this: (dose: 12.5 mg/kg/injection, schedule: Q01DX009 (ip), vehicle: Klucel (hydroxypropylcellulose) (HPC)) 95 % of control; under setting [1], 100 % of control; under setting [2], 100 % of control.

Regarding `O=NN(CCCl)C(=O)NCC1CCC(CNC(=O)N(CCCl)N=O)CC1` (configuration not stated), the T/C runs as follows: (dose: 3.13 mg/kg/injection, schedule: Q01DX009 (ip), vehicle: other) 113 % of control; (dose: 6.25 mg/kg/injection, schedule: Q01DX009 (ip), vehicle: other) 122 % of control; (dose: 12.5 mg/kg/injection, schedule: Q01DX009 (ip), vehicle: other) 116 % of control; under setting [1], 154 % of control; (dose: 26.4 mg/kg/injection, schedule: Q01DX009 (ip), vehicle: other) 154 % of control; (dose: 40.0 mg/kg/injection, schedule: Q01DX009 (ip), vehicle: other) 159 % of control. For the same compound, the T/C reads like this: (dose: 44.0 mg/kg/injection, schedule: Q01DX009 (ip), vehicle: other) 227 % of control; under setting [2], 115 % of control; (dose: 66.0 mg/kg/injection, schedule: Q01DX009 (ip), vehicle: other) 240 % of control; (dose: 66.0 mg/kg/injection, schedule: Q04DX003 (ip), vehicle: saline sonified) 170 % of control; under setting [3], 169 % of control; (dose: 100.0 mg/kg/injection, schedule: Q01DX009 (ip), vehicle: other) 272 % of control and 300 % of control. Further, the T/C (dose: 100.0 mg/kg/injection, schedule: Q04DX003 (ip), vehicle: saline sonified) was 175 % of control and 185 % of control; the T/C (dose: 150.0 mg/kg/injection, schedule: Q01DX009 (ip), vehicle: other) was 245 % of control; the T/C (dose: 150.0 mg/kg/injection, schedule: Q04DX003 (ip), vehicle: saline sonified) is 180 % of control; the T/C under setting [4] is 176 % of control; the T/C (dose: 200.0 mg/kg/injection, schedule: Q04DX003 (ip), vehicle: saline sonified) was 240 % of control.

For the compound `ClC[P+](c1ccccc1)(c1ccccc1)c1ccccc1`, the T/C was 120 % of control (dose: 3.0 mg/kg/injection, schedule: Q01DX009 (ip), vehicle: saline); 116 % of control (dose: 6.0 mg/kg/injection, schedule: Q01DX009 (ip), vehicle: saline); 100 % of control (dose: 12.5 mg/kg/injection, schedule: Q04DX003 (ip), vehicle: saline).

Turning to `CNC(=O)NC1C(O)COC(OC)C1O` (configuration not stated), the T/C runs as follows: (dose: 150.0 mg/kg/injection, schedule: Q01DX001 (ip), vehicle: saline) 104 % of control; (dose: 300.0 mg/kg/injection, schedule: Q01DX001 (ip), vehicle: saline) 109 % of control.

Take `ClCCN(CCCl)c1ccc(CNCCCNCc2ccc(N(CCCl)CCCl)cc2)cc1`: the T/C was 160 % of control (dose: 2.5 mg/kg/injection, schedule: Q01DX009 (ip), vehicle: saline sonified) and 170 % of control (dose: 3.75 mg/kg/injection, schedule: Q01DX009 (ip), vehicle: saline sonified).

For the compound `COc1cc(C=Nc2ccc(-n3ccnc3C)cc2)ccc1N(CCCl)CCCl`, the T/C was 157 % of control (dose: 5.0 mg/kg/injection, schedule: Q01DX009 (ip), vehicle: Klucel (hydroxypropylcellulose) (HPC)) and 162 % of control (dose: 7.5 mg/kg/injection, schedule: Q01DX009 (ip), vehicle: Klucel (hydroxypropylcellulose) (HPC)).

Take `Clc1ccccc1CSc1ncnc2nc[nH]c12`: the T/C runs as follows: under setting [3], 90 % of control; under setting [5], 95 % of control; under setting [4], 90 % of control; under setting [6], 100 % of control; (dose: 400.0 mg/kg/injection, schedule: Q01DX009 (ip), vehicle: Klucel (hydroxypropylcellulose) (HPC)) 104 % of control; (dose: 400.0 mg/kg/injection, schedule: Q04DX003 (ip), vehicle: Klucel (hydroxypropylcellulose) (HPC)) 100 % of control.

For `CCn1c2ccc(N)cc2c2c3[nH]c(=O)c4cccn4c3ccc21`, the T/C by setting is: (dose: 100.0 mg/kg/injection, schedule: Q04DX002 (ip), vehicle: saline with Tween-80) 100 % of control; (dose: 200.0 mg/kg/injection, schedule: Q04DX002 (ip), vehicle: saline with Tween-80) 92 % of control.

Regarding `O=C(O)C(CSC(c1ccccc1)c1ccccc1)N1C(=O)c2ccccc2C1=O` (configuration not stated), the T/C reads like this: (dose: 50.0 mg/kg/injection, schedule: Q04DX003 (ip), vehicle: Klucel (hydroxypropylcellulose) (HPC)) 100 % of control; under setting [5], 104 % of control; under setting [6], 95 % of control.

With `NC(=NCCCC(NCc1ccccc1)C(=O)O)N[N+](=O)[O-]` (configuration not stated), the T/C (dose: 50.0 mg/kg/injection, schedule: Q04DX003 (ip), vehicle: saline + alcohol) is 103 % of control; the T/C (dose: 100.0 mg/kg/injection, schedule: Q04DX003 (ip), vehicle: saline + alcohol) is 99 % of control; the T/C (dose: 200.0 mg/kg/injection, schedule: Q04DX003 (ip), vehicle: saline + alcohol) was 94 % of control; the T/C (dose: 400.0 mg/kg/injection, schedule: Q04DX003 (ip), vehicle: saline + alcohol) is 105 % of control.

For the compound `NC(CS(=O)(=O)c1ccc(N(CCCl)CCCl)cc1)C(=O)O` (configuration not stated), the T/C was 108 % of control (dose: 100.0 mg/kg/injection, schedule: Q01DX001 (ip), vehicle: saline with Tween-80); 101 % of control (dose: 200.0 mg/kg/injection, schedule: Q01DX001 (ip), vehicle: saline with Tween-80); 90 % of control (dose: 400.0 mg/kg/injection, schedule: Q01DX001 (ip), vehicle: saline with Tween-80).

In the case of `NC(=S)N/N=C/c1ccc2c(c1)OCO2`, the T/C is 95 % of control (dose: 50.0 mg/kg/injection, schedule: Q04DX003 (ip), vehicle: saline with Tween-80) and 100 % of control (dose: 100.0 mg/kg/injection, schedule: Q04DX003 (ip), vehicle: saline with Tween-80).

In the case of `Oc1ccc2ccccc2c1/C=N\Sc1ccc(Cl)cc1`, the T/C reads like this: (dose: 12.5 mg/kg/injection, schedule: Q01DX009 (ip), vehicle: saline with Tween-80) 90 % of control; (dose: 25.0 mg/kg/injection, schedule: Q01DX009 (ip), vehicle: saline with Tween-80) 96 % of control; under setting [7], 106 % of control.

As for `CC(=N\O)/C(C)=N/O.CC(=N\O)/C(C)=N/O.[Cl][Co][Cl]`, the T/C (dose: 6.25 mg/kg/injection, schedule: Q01DX009 (ip), vehicle: saline) is 90 % of control and 99 % of control; the T/C (dose: 12.5 mg/kg/injection, schedule: Q01DX009 (ip), vehicle: saline) is 100 % of control; the T/C (dose: 25.0 mg/kg/injection, schedule: Q01DX009 (ip), vehicle: saline) is 99 % of control; the T/C (dose: 50.0 mg/kg/injection, schedule: Q01DX009 (ip), vehicle: saline) is 94 % of control and 110 % of control; the T/C (dose: 100.0 mg/kg/injection, schedule: Q01DX009 (ip), vehicle: saline) is 91 % of control and 110 % of control; the T/C (dose: 200.0 mg/kg/injection, schedule: Q01DX009 (ip), vehicle: saline) was 100 % of control.

`O=[N+]([O-])c1ccc(-c2nc(Cl)c3c(n2)CCCC3)o1`: the T/C is, setting by setting: under setting [7], 95 % of control; under setting [8], 98 % of control; under setting [9], 97 % of control.

For the compound `OCC(O)C(O)C(O)C(O)C=Nc1ccc(/C=C/c2ccnc3ccccc23)cc1` (configuration not stated), the T/C under setting [7] was 109 % of control, the T/C under setting [8] was 105 % of control and the T/C under setting [9] is 112 % of control.
